Assay results from patent US12171229B2, “Heteroaryl-triazole and heteroaryl-tetrazole compounds as pesticides” (BAYER AKTIENGESELLSCHAFT, priority 2018, dated 2024).

Legend:
Phaedon cochleariae = Phaedon cochleariae spray test; assay type: in vivo; settings: foliar, 168 h, after 7 days, larvae on Chinese cabbage leaf disks
Procedure: Phaedon Cochleariae—Spray Test
(§1) To produce a suitable preparation of active compound, 1 part by weight of active compound is mixed with the stated amount of solvents and is diluted with water, containing an emulsifier concentration of 1000 ppm, to the desired concentration. Further test concentrations are prepared by dilution with emulsifier containing water.
Chinese cabbage (Brassica pekinensis) leaf disks are sprayed with a preparation of the active ingredient of the desired concentration. Once dry, the leaf disks are infested with mustard beetle larvae (Phaedon cochleariae).
After 7 days mortality in % is determined. 100% means all beetle larvae have been killed and 0% means none of the beetle larvae have been killed.

Tetranychus urticae = Tetranychus urticae spray test (OP-resistant); assay type: in vivo; settings: foliar, 144 h, after 6 days, French bean leaf disks
Procedure: Tetranychus urticae—Spray Test (OP-Resistant)
as §1
French bean (Phaseolus vulgaris) leaf disks infected with all instars of the two spotted spidermite (Tetranychus urticae), are sprayed with a preparation of the active ingredient of the desired concentration.
After 6 days mortality in % is determined. 100% means all spider mites have been killed and 0% means none of the spider mites have been killed.

Compound	mortality at 500 g/ha (Phaedon cochleariae)	mortality at 500 g/ha (Tetranychus urticae)
CC(c1ncnn1-c1ccc(C#N)cn1)N(CC1CC1)C(=O)c1cc(Cl)cc(C(F)(F)F)c1 (centres unmarked) [Example I-007]	100%	–
C[C@H](NC(=O)c1cc(Cl)cc(SC(F)(F)F)c1)c1ncnn1-c1ccc(C#N)cn1 [Example I-042]	–	90%
